Laboratory results from patent publication US20250331519A1, “HERBICIDAL DERIVATIVES” (SYNGENTA CROP PROTECTION AG, priority 2022, published 2025).

Assays:
Format in all cases: in vivo
[1] = test system: Ipomoea hederacea (IPOHE); experiment: Pre-emergence herbicidal glasshouse test; conditions: evaluated after 13 days, five-point scale
Setaria faberi (SETFA) [2] = experiment: Pre-emergence herbicidal glasshouse test; conditions: evaluated after 13 days, five-point scale
Zea mays (ZEAMX) [3] = experiment: Pre-emergence herbicidal glasshouse test; conditions: evaluated after 13 days, five-point scale
[4] = test system: Echinochloa crus-galli (ECHCG); experiment: Pre-emergence herbicidal glasshouse test; conditions: evaluated after 13 days, five-point scale
[5] = test system: Amaranthus palmeri (AMAPA); experiment: Pre-emergence herbicidal glasshouse test; conditions: evaluated after 13 days, five-point scale
[6] = test system: Amaranthus retoflexus (AMARE); experiment: Pre-emergence herbicidal glasshouse test; conditions: evaluated after 13 days, five-point scale
[7] = test system: Amaranthus palmeri (AMAPA); experiment: Post-emergence herbicidal glasshouse test; conditions: sprayed after 8 days cultivation, evaluated after 13 days, five-point scale
Description: (§1) Seeds of a variety of test species are sown in standard soil in pots (Ipomoea hederacea (IPOHE), Setaria faberi (SETFA), Zea mays (ZEAMX), Echinochloa crus-galli (ECHCG), Amaranthus palmeri (AMAPA), Amaranthus retoflexus (AMARE)). After 8 days cultivation under controlled conditions in a glasshouse (at 24° C./16° C., day/night; 14 hours light; 65% humidity), the plants are sprayed with an aqueous spray solution derived from the formulation of the technical active ingredient in acetone/water (50:50) solution containing 0.5% Tween 20 (polyoxyethelyene sorbitan monolaurate, CAS RN 9005-64-5). Compounds are applied at 1000 g/ha unless otherwise stated. The test plants are then grown in a glasshouse under controlled conditions in a glasshouse (at 24° C./16° C., day/night; 14 hours light; 65% humidity) and watered twice daily. After 13 days the test is evaluated for the percentage damage caused to the plant. The biological activities are shown in the following table on a five-point scale (5=81-100%; 4=61-80%; 3=41-60%; 2=21-40%; 1=0-20%; -=not tested).

[8] = test system: Amaranthus retoflexus (AMARE); experiment: Post-emergence herbicidal glasshouse test; conditions: sprayed after 8 days cultivation, evaluated after 13 days, five-point scale
Description: as §1

[9] = test system: Echinochloa crus-galli (ECHCG); experiment: Post-emergence herbicidal glasshouse test; conditions: sprayed after 8 days cultivation, evaluated after 13 days, five-point scale
Description: as §1

[10] = test system: Ipomoea hederacea (IPOHE); experiment: Post-emergence herbicidal glasshouse test; conditions: sprayed after 8 days cultivation, evaluated after 13 days, five-point scale
Description: as §1

Setaria faberi (SETFA) [11] = experiment: Post-emergence herbicidal glasshouse test; conditions: sprayed after 8 days cultivation, evaluated after 13 days, five-point scale
Description: as §1

Zea mays (ZEAMX) [12] = experiment: Post-emergence herbicidal glasshouse test; conditions: sprayed after 8 days cultivation, evaluated after 13 days, five-point scale
Description: as §1

CCn1c(C)c(-n2ccc(C(F)(F)F)n2)c(=O)c(C(=O)O)c1-c1ccc(Cl)c(Cl)c1 [Compound 1, 2-(3,4-dichlorophenyl)-1-ethyl-6-methyl-4-oxo-5-[3-(trifluoromethyl)pyrazol-1-yl]pyridine-3-carboxylic acid]
percentage damage caused to the plant, IPOHE ([1]; 1000 g/ha): 4 (4=61-80%)
percentage damage caused to the plant, SEFTA (Setaria faberi (SETFA) [2]; 1000 g/ha): 1 (1=0-20%)
percentage damage caused to the plant, ZEAMX (Zea mays (ZEAMX) [3]; 1000 g/ha): 0
percentage damage caused to the plant, ECHCG ([4]; 1000 g/ha): 0
percentage damage caused to the plant, AMAPA ([5]; 1000 g/ha): 0
percentage damage caused to the plant, AMARE ([6]; 1000 g/ha): 0
percentage damage caused to the plant, AMAPA ([7]; 1000 g/ha): 3 (3=41-60%)
percentage damage caused to the plant, AMARE ([8]; 1000 g/ha): 2 (2=21-40%)
percentage damage caused to the plant, ECHCG ([9]; 1000 g/ha): 1 (1=0-20%)
percentage damage caused to the plant, IPOHE ([10]; 1000 g/ha): 2 (2=21-40%)
percentage damage caused to the plant, SEFTA (Setaria faberi (SETFA) [11]; 1000 g/ha): 1 (1=0-20%)
percentage damage caused to the plant, ZEAMX (Zea mays (ZEAMX) [12]; 1000 g/ha): 1 (1=0-20%)

CCn1c(C)c(-n2cc(Cl)cn2)c(=O)c(C(=O)O)c1-c1ccc(Cl)c(Cl)c1 [Compound 3, 5-(4-chloropyrazol-1-yl)-2-(3,4-dichlorophenyl)-1-ethyl-6-methyl-4-oxo-pyridine-3-carboxylic acid]
percentage damage caused to the plant, IPOHE ([1]; 250 g/Ha): 0
percentage damage caused to the plant, SEFTA (Setaria faberi (SETFA) [2]; 250 g/Ha): 2 (2=21-40%)
percentage damage caused to the plant, ZEAMX (Zea mays (ZEAMX) [3]; 250 g/Ha): 0
percentage damage caused to the plant, ECHCG ([4]; 250 g/Ha): 1 (1=0-20%)
percentage damage caused to the plant, AMAPA ([5]; 250 g/Ha): 0
percentage damage caused to the plant, AMARE ([6]; 250 g/Ha): 0
percentage damage caused to the plant, AMAPA ([7]; 250 g/Ha): 3 (3=41-60%)
percentage damage caused to the plant, AMARE ([8]; 250 g/Ha): 3 (3=41-60%)
percentage damage caused to the plant, ECHCG ([9]; 250 g/Ha): 3 (3=41-60%)
percentage damage caused to the plant, IPOHE ([10]; 250 g/Ha): 2 (2=21-40%)
percentage damage caused to the plant, SEFTA (Setaria faberi (SETFA) [11]; 250 g/Ha): 3 (3=41-60%)
percentage damage caused to the plant, ZEAMX (Zea mays (ZEAMX) [12]; 250 g/Ha): 2 (2=21-40%)

CCn1c(C)c(-n2ccc(Cl)n2)c(=O)c(C(=O)O)c1-c1ccc(Cl)c(Cl)c1 [Compound 2, 5-(3-chloropyrazol-1-yl)-2-(3,4-dichlorophenyl)-1-ethyl-6-methyl-4-oxo-pyridine-3-carboxylic acid]
percentage damage caused to the plant, IPOHE ([1]; 1000 g/ha): 4 (4=61-80%)
percentage damage caused to the plant, SEFTA (Setaria faberi (SETFA) [2]; 1000 g/ha): 3 (3=41-60%)
percentage damage caused to the plant, ZEAMX (Zea mays (ZEAMX) [3]; 1000 g/ha): 1 (1=0-20%)
percentage damage caused to the plant, ECHCG ([4]; 1000 g/ha): 0
percentage damage caused to the plant, ECHCG ([9]; 1000 g/ha): 4 (4=61-80%)
percentage damage caused to the plant, IPOHE ([10]; 1000 g/ha): 4 (4=61-80%)
percentage damage caused to the plant, SEFTA (Setaria faberi (SETFA) [11]; 1000 g/ha): 4 (4=61-80%)
percentage damage caused to the plant, ZEAMX (Zea mays (ZEAMX) [12]; 1000 g/ha): 3 (3=41-60%)
